Test results reported in patent EP0982028A1, “New use of taxoid derivatives” (RHONE-POULENC RORER S.A., priority 1998, dated 2000).
In brackets after ≈: the same amount, converted by molar mass. Several values for one entry are separate records, joined by “and”; a condition that tells them apart may be missing. Equal entries are not always repeated. Entries after “also recorded” stand apart in the source; their conditions may differ. Where two headings read alike, the source gives them in different places.

Legend:
colon adenocarcinoma C51 = assay: In vivo antitumor activity against colon adenocarcinoma C51; set-up: species or system BALB/c female mice; settings: for T-C: tumor to reach 750 mg
Method: (§1) In vivo schedule of administration and antitumor efficacy studies were carried out using a preclinical standard formulation of Product of formula Ia in ethanol: polysorbate 80 (50:50, v/v). After dilution, the final concentration was 5 % ethanol, 5 % polysorbate, 90 % glucose-5 % in water.
(§2) Product of formula Ia was administered by the intravenous route (i.v.). The experiments and data analyses were done according to standard protocols.
The activity end points used to assess subcutaneously implanted solid tumors were: • tumor growth inhibition, T/C, where T and C are the median tumor weights in mg of the treated and the control groups, respectively. […] A T/C < 10 %, ++, is considered as a high antitumor activity level which justifies further development (DN-2 level).
(§3) In cases of high antitumor activity, the two following end points were also used: • tumor growth delay, T-C, where T and C are the median times in days required for the treatment group and the control group tumors to reach a predetermined size (750 to 1500 mg). • log cell kill, which is the logarithm of the total number of cells killed by treatment.
(§4) Toxicity was based on drug deaths (≥ 10 %) or a weight loss nadir > 20 %. Docetaxel was used for comparison trials when needed.
Product of formula Ia was administered i.v. on day 4, 6, 8. […] The dosage below yielded a 2.2 log cell kill.

[1] = test system: advanced colon adenocarcinoma C38; assay: In vivo antitumor activity against advanced stage colon adenocarcinoma C38; set-up: species or system B6D2F1 female mice; settings: for T-C: tumor to reach 1000 mg
Method: as §1, §2, §3
For advanced stage tumors, regressions can be either partial (more than 50 % reduction in tumor mass) or complete. Complete regressions are included in the partial regressions.
as §4
Product of formula Ia was administered i.v. to mice bearing 200 to 400 mg of tumor. […] In comparison, docetaxel at the HNTD produced only 40 % partial regressions in the same trial.

P388/VCR = settings: IC50 resistant / IC50 sensitive cells, 4 days of continuous exposure
Method: (§5) The resistance factor was calculated by dividing the IC50 value obtained on resistant cells by the IC50 value obtained on sensitive cells.

P388/DOX = settings: IC50 on resistant cells divided by IC50 on sensitive cells, 4 days of continuous exposure
Method: as §5

KB V1 = settings: IC50 resistant / IC50 sensitive cells, 4 days of continuous exposure
Method: as §5

Calc18/TXT = settings: IC50 resistant / IC50 sensitive cells, 4 days of continuous exposure
Method: as §5

HL60/TAX = settings: IC50 resistant / IC50 sensitive cells, 4 days of continuous exposure
Method: as §5

P388/CPT5 cell line = settings: P388/CPT5, acquired resistance to camptothecin, no P-glycoprotein
Method: as §5

P388/TXT = settings: IC50 resistant / IC50 sensitive cells, 4 days of continuous exposure
Method: as §5

[2] = test system: human colon adenocarcinoma CaCo-2 cell line (ATCC HTB37); assay: In vitro growth inhibition on CaCo-2 cell line (neutral red); format: cell-based
Method: The methodology was used, i.e., 96 well plates, time of contact of the drugs (96 hours) and neutral red coloration of viable cell. Results expressed as IC50, were summarized in the next table.

[3] = 5.8 mg/kg per injection i.v., days 4,6,8
[4] = 9.3 mg/kg per injection i.v., days 4,6,8
[5] = 15.0 mg/kg per injection i.v., days 4,6,8
[6] = 24.2 mg/kg per injection i.v., days 4,6,8
[7] = 7.7 mg/kg per injection i.v., days 14,17,20
[8] = 12.4 mg/kg per injection i.v., days 14,17,20
[9] = 20.0 mg/kg per injection i.v., days 14,17,20
[10] = 32.2 mg/kg per injection i.v., days 14,17,20

4α-acetoxy-2α-benzoyloxy-5β,20-epoxy-1β-hydroxy-7β,10β-dimethoxy-9-oxo-11-taxen-13α-yl (2R,3S)-3 tert-butoxycarbonylamino-2-hydroxy-3-phenylpropionate [Product of formula Ia]
Comments (colon adenocarcinoma C51; [3]): Active | T/C in % day 18 (colon adenocarcinoma C51; [3]): 0% | log cell kill total (colon adenocarcinoma C51; [3]): 2.2 | T-C (colon adenocarcinoma C51; [3]): 21.9 days | Comments (colon adenocarcinoma C51; [4]): highly active; also recorded: HNTD active | T/C in % day 18 (colon adenocarcinoma C51; [4]): 0% | log cell kill total (colon adenocarcinoma C51; [4]): 2.6 | T-C (colon adenocarcinoma C51; [4]): 25.8 days | Comments (colon adenocarcinoma C51; [5]): Toxic | DD = drug death (colon adenocarcinoma C51; [5]): 1/5 | Comments (colon adenocarcinoma C51; [6]): Toxic | DD = drug death (colon adenocarcinoma C51; [6]): 5/5 | HNTD = highest nontoxic dose (colon adenocarcinoma C51; i.v. on day 4, 6, 8, C51-bearing mice): 9.3 mg/kg/injection | Comments [1, 7]: Active | Complete regressions [1, 7]: 2/5 | log cell kill total [1, 7]: 2.7 | T-C [1, 7]: 25.0 days | Comments [1, 8]: Highly active | Complete regressions [1, 8]: the same number of complete regressions and 5/5 | TFS = tumor free survivors observed on day 139 [1, 8]: 4/5 | tumor free survivors ([1]; 12.4 mg/kg/injection i.v.): 80% | Comments [1, 9]: HNTD highly active | Complete regressions [1, 9]: 5/5 | TFS = tumor free survivors observed on day 139 [1, 9]: all mice being tumor free survivors and 5/5 | Comments [1, 10]: Toxic | DD = drug death [1, 10]: 1/5 | HNTD = highest nontoxic dose ([1]; i.v., mice bearing 200 to 400 mg of tumor): 20 mg/kg/injection | Resistance factor (P388/VCR): 1.8 | Resistance factor (P388/DOX): 10.0 | Resistance factor (P388/DOX; listed as product of formula Ia): 10 | Resistance factor (KB V1): 7.6 | Resistance factor (Calc18/TXT): 4.3 | Resistance factor (HL60/TAX): 2.5 | Resistance factor (P388/CPT5 cell line): 4.8 | Resistance factor (P388/TXT): 1.8

CC(=O)O[C@@]12CO[C@@H]1C[C@H](O)[C@@]1(C)C(=O)[C@H](O)C3=C(C)[C@@H](OC(=O)[C@H](O)[C@@H](NC(=O)OC(C)(C)C)c4ccccc4)C[C@@](O)([C@@H](OC(=O)c4ccccc4)[C@H]21)C3(C)C [Docetaxel]
IC50 ([2]; Homo sapiens, 96 well plates, 96 hours contact, neutral red): 0.108 ± 0.017 mg/L (≈ 0.134 µM) | IC50 on CaCo-2 cells relative to Product of formula Ia ([2]; IC50 docetaxel versus IC50 Product of formula Ia): 4.9 times | Comments (colon adenocarcinoma C51; [3]): Active | T/C in % day 18 (colon adenocarcinoma C51; [3]): 4% | log cell kill total (colon adenocarcinoma C51; [3]): 0.9 | T-C (colon adenocarcinoma C51; [3]): 8.9 days | Comments (colon adenocarcinoma C51; [4]): Active | T/C in % day 18 (colon adenocarcinoma C51; [4]): 0% | log cell kill total (colon adenocarcinoma C51; [4]): 2.2 | T-C (colon adenocarcinoma C51; [4]): 22.4 days | Comments (colon adenocarcinoma C51; [5]): HNTD highly active | T/C in % day 18 (colon adenocarcinoma C51; [5]): 0% | log cell kill total (colon adenocarcinoma C51; [5]): 3.1 | T-C (colon adenocarcinoma C51; [5]): 31.1 days | Comments (colon adenocarcinoma C51; [6]): Toxic | bwl = body weight loss (colon adenocarcinoma C51; [6]): 22.8% | Comments [1, 7]: Inactive | Complete regressions [1, 7]: 0/5 | log cell kill total [1, 7]: 0.3 | T-C [1, 7]: 2.5 days | Comments [1, 8]: Marginal activity | Complete regressions [1, 8]: 0/5 | log cell kill total [1, 8]: 0.7 | T-C [1, 8]: 6.1 days | Comments [1, 9]: HNTD highly active | Complete regressions [1, 9]: 0/5 | log cell kill total [1, 9]: 3.1 | T-C [1, 9]: 29.1 days | Comments [1, 10]: Toxic | bwl = body weight loss [1, 10]: 20.6% | partial regressions ([1]; at the HNTD, partial = more than 50 % reduction in tumor mass): 40% | Resistance factor (P388/VCR): 5.8 | Resistance factor (P388/DOX): 50.7 | Resistance factor (P388/DOX; listed as docetaxel): 50 | Resistance factor (KB V1): 59.0 | Resistance factor (KB V1; listed as docetaxel): 59 | Resistance factor (Calc18/TXT): 23.5 | Resistance factor (HL60/TAX): 8.1 | Resistance factor (P388/CPT5 cell line): 10.5 | Resistance factor (P388/TXT): 4.8

CC[C@@]1(O)C(=O)OCc2c1cc1n(c2=O)Cc2cc3ccccc3nc2-1 [camptothecin]
Resistance factor (P388/CPT5 cell line): 286
